Source: patent US8916595B2, “Plant disease controlling composition and method for controlling plant disease” (Sumitomo Chemical Company, Limited, priority 2010, dated 2014)

Test system: gray mold fungus (Botrytis cinerea)
Test: Cucumber leaf disk preventive test against gray mold fungus (spray inoculation, onset area rate)
Assay type: in vivo
Details: single compound, 15° C., four days
Procedure: True leaf of cucumber is punched out with cork borer to 13 mm in diameter to prepare a leaf disk. In 24 well microwell plate that is dispensed with 1 ml 0.8% water agar, the leaf disk is placed such that the upper side of the leaf is in an upward direction. Thereto is added 20 micro liter a testing solution prepared by mixing a dimethyl sulfoxide solution of the present compound (racemate) and a dimethyl sulfoxide solution of benthiavalicarb to a predetermined concentration to treat the leaf disk.
After confirming that the testing medical solution is dried, conidium of gray mold fungus (Botrytis cinerea) is suspended into potato dextrose broth (DIFCO) in a density of about 10^5 conidium/mL and is then subjected to a spray inoculation. After leaving to stand the leaf disk in a growth chamber set up at 15° C. for four days, an onset area on the leaf is measured and then calculated an onset area rate (hereinafter, referred to as an onset area rate of treated group).
The same operation is carried out with 20 micro liter water instead of 20 micro liter a testing medicine solution to calculate an onset area rate (hereinafter, referred to an onset area rate of non-treated group).
A preventive value is calculated from the above onset area rate of treated group and the onset area rate of non-treated group by the following equation: Preventive value(%)=100×(A−B)/A
A: an onset area rate of treated group
B: an onset area rate of non-treated group
The same operations as described in Test Example 1 are carried out with iprovalicarb instead of benthiavalicarb, so as to calculate a preventive value.
Also for comparison, the same operations as described in Test Example 1 are carried out with the exception that the testing medicine solution is substituted with a predetermined concentration of each dimethyl sulfoxide solution of the present compound (racemate) or iprovalicarb, so as to calculate respective preventive values.
For comparison, the same operations as described in Test Example 1 are carried out with the exception that the testing medicine solution is substituted with a predetermined concentration of a dimethyl sulfoxide solution of benthiavalicarb, so as to calculate a preventive value.

[1] = treatment concentration 0.5 ppm
[2] = treatment concentration 5.0 ppm

| Structure (SMILES) | preventive value (%) [1] [%] | preventive value (%) [2] [%] |
| --- | --- | --- |
| CC(C)[C@H](NC(=O)O)C(=O)N[C@H](C)c1nc2ccc(F)cc2s1 [benthiavalicarb] | 0 | 15 |
| Cc1ccc(C(C)NC(=O)[C@@H](NC(=O)OC(C)C)C(C)C)cc1 (stereo partly shown) [iprovalicarb] | 0 | 15 |
